Numbers after ± are expanded uncertainties.
Assay: xn = mol fraction of the nth substance listed
Details: 298.15 K, 101 kPa, Liquid

C1COCO1 [1,3-dioxolane] + CCC(C)=O
mass density (x1 = 0.0976): 818.9 ± 0.6 kg/m3
viscosity (x1 = 0.0976): 0.384 ± 0.008 mPa·s
mass density (x1 = 0.1957): 840.5 ± 0.7 kg/m3
viscosity (x1 = 0.1957): 0.397 ± 0.008 mPa·s
mass density (x1 = 0.2944): 863.1 ± 0.7 kg/m3
viscosity (x1 = 0.2944): 0.411 ± 0.008 mPa·s
mass density (x1 = 0.3935): 886.8 ± 0.7 kg/m3
viscosity (x1 = 0.3935): 0.426 ± 0.008 mPa·s
mass density (x1 = 0.4933): 911.8 ± 0.7 kg/m3
viscosity (x1 = 0.4933): 0.441 ± 0.009 mPa·s
mass density (x1 = 0.5935): 938.1 ± 0.8 kg/m3
viscosity (x1 = 0.5935): 0.456 ± 0.009 mPa·s
mass density (x1 = 0.6943): 965.5 ± 0.8 kg/m3
viscosity (x1 = 0.6943): 0.473 ± 0.009 mPa·s
mass density (x1 = 0.7956): 994.2 ± 0.8 kg/m3
viscosity (x1 = 0.7956): 0.491 ± 0.009 mPa·s
mass density (x1 = 0.8975): 1024.5 ± 0.8 kg/m3
viscosity (x1 = 0.8975): 0.51 ± 0.01 mPa·s
mass density (x1 = 1): 1057.1 ± 0.9 kg/m3
viscosity (x1 = 1): 0.531 ± 0.01 mPa·s

C1COCO1 [1,3-dioxolane] + CCCC(=O)O
mass density (x1 = 1): 1057.1 ± 0.9 kg/m3
viscosity (x1 = 1): 0.531 ± 0.01 mPa·s

C1COCO1 [1,3-dioxolane] + CCCCN
mass density (x1 = 1): 1057.1 ± 0.9 kg/m3
viscosity (x1 = 1): 0.531 ± 0.01 mPa·s

C1COCO1 [1,3-dioxolane] + CCCCOC(C)=O
mass density (x1 = 0.1484): 890.7 ± 0.7 kg/m3
viscosity (x1 = 0.1484): 0.621 ± 0.011 mPa·s
mass density (x1 = 0.2816): 906.9 ± 0.7 kg/m3
viscosity (x1 = 0.2816): 0.599 ± 0.011 mPa·s
mass density (x1 = 0.4019): 923.3 ± 0.7 kg/m3
viscosity (x1 = 0.4019): 0.588 ± 0.011 mPa·s
mass density (x1 = 0.5111): 940.3 ± 0.8 kg/m3
viscosity (x1 = 0.5111): 0.583 ± 0.011 mPa·s
mass density (x1 = 0.6106): 957.8 ± 0.8 kg/m3
viscosity (x1 = 0.6106): 0.577 ± 0.011 mPa·s
mass density (x1 = 0.7017): 976.1 ± 0.8 kg/m3
viscosity (x1 = 0.7017): 0.571 ± 0.01 mPa·s
mass density (x1 = 0.7853): 995.2 ± 0.8 kg/m3
viscosity (x1 = 0.7853): 0.565 ± 0.01 mPa·s
mass density (x1 = 0.8625): 1015 ± 0.8 kg/m3
viscosity (x1 = 0.8625): 0.556 ± 0.01 mPa·s
mass density (x1 = 0.9338): 1035.6 ± 0.9 kg/m3
viscosity (x1 = 0.9338): 0.544 ± 0.01 mPa·s
mass density (x1 = 1): 1057.1 ± 0.9 kg/m3
viscosity (x1 = 1): 0.531 ± 0.01 mPa·s

C1COCCO1 [1,4-dioxane] + CCC(C)=O
mass density (x1 = 1): 1026.5 ± 0.8 kg/m3
viscosity (x1 = 1): 1.196 ± 0.02 mPa·s

C1COCCO1 [1,4-dioxane] + CCCC(=O)O
mass density (x1 = 1): 1026.5 ± 0.8 kg/m3
viscosity (x1 = 1): 1.196 ± 0.02 mPa·s

C1COCCO1 [1,4-dioxane] + CCCCN
mass density (x1 = 1): 1026.5 ± 0.8 kg/m3
viscosity (x1 = 1): 1.196 ± 0.02 mPa·s

C1COCCO1 [1,4-dioxane] + CCCCOC(C)=O
mass density (x1 = 1): 1026.5 ± 0.8 kg/m3
viscosity (x1 = 1): 1.196 ± 0.02 mPa·s

CCCCN [1-butanamine] + C1COCCO1
mass density (x2 = 0): 731.9 ± 0.6 kg/m3
viscosity (x2 = 0): 0.493 ± 0.009 mPa·s
mass density (x2 = 0.0855): 753.4 ± 0.6 kg/m3
viscosity (x2 = 0.0855): 0.509 ± 0.01 mPa·s
mass density (x2 = 0.1738): 776.1 ± 0.6 kg/m3
viscosity (x2 = 0.1738): 0.524 ± 0.01 mPa·s
mass density (x2 = 0.265): 800.1 ± 0.6 kg/m3
viscosity (x2 = 0.265): 0.541 ± 0.01 mPa·s
mass density (x2 = 0.3594): 825.8 ± 0.7 kg/m3
viscosity (x2 = 0.3594): 0.56 ± 0.01 mPa·s
mass density (x2 = 0.4569): 853.3 ± 0.7 kg/m3
viscosity (x2 = 0.4569): 0.59 ± 0.011 mPa·s
mass density (x2 = 0.5579): 882.8 ± 0.7 kg/m3
viscosity (x2 = 0.5579): 0.637 ± 0.011 mPa·s
mass density (x2 = 0.6625): 914.7 ± 0.7 kg/m3
viscosity (x2 = 0.6625): 0.699 ± 0.012 mPa·s
mass density (x2 = 0.7709): 949.2 ± 0.8 kg/m3
viscosity (x2 = 0.7709): 0.792 ± 0.014 mPa·s
mass density (x2 = 0.8834): 986.4 ± 0.8 kg/m3
viscosity (x2 = 0.8834): 0.941 ± 0.016 mPa·s

Source: the NIST ThermoML archive (doi:10.1021/je0504109)
